Data as given in US8309129B2, “Nanoparticles comprising a drug, ethylcellulose, and a bile salt” (Bend Research, Inc., priority 2007, dated 2012).
In brackets after ≈: the same amount, converted by molar mass. Where two headings read alike, the source gives them in different places.

Key:
Format in all cases: physicochemical
[1] = Nanoparticle dissolution test of valdecoxib in Hank's buffer; conditions: percent of total drug released per minute, 10 μg/mL, 37° C.
Protocol: The dissolution rate of valdecoxib from nanoparticles of Example 12 was measured using the dissolution test as follows. The spray-dried composition of Example 12 were added to Hank's buffer to obtain a valdecoxib concentration of about 1 mgA/mL. The suspension was diluted to 10 μg/mL by adding 0.2 mL suspension to 20 mL buffer. The diluted suspension was placed on a shaker table in a 37° C. chamber, and aliquots were removed at 2, 5, and 10 minutes. The aliquots were centrifuged for 5 minutes at 12,000 rpm using a 30,000-dalton molecular-weight cutoff centrifuge tube filter, and 100 μL of the supernatant was added to 250 μL acetonitrile. The samples were assayed by HPLC. Crystalline drug alone was tested for comparison. The dissolution rate for nanoparticles of the invention was 3.6 times that of crystalline drug alone.

[2] = Dynamic light scattering (DLS) of aqueous nanoparticle suspension as formed; conditions: Tables 5 and 6; valdecoxib suspension samples
Excerpt: The nanoparticles are small particles comprising the drug, ethylcellulose, and a bile salt. By “nanoparticles” is meant a plurality of small particles in which the average size of the particles in suspension is less than about 500 nm. By “average size” is meant the effective cumulant diameter as measured by dynamic light scattering, using for example, Brookhaven Instruments' 90Plus particle sizing instrument. By “size” is meant the diameter for spherical particles, or the maximum diameter for non-spherical particles. Preferably, the average size of the nanoparticles is less than 400 nm, more preferably less 300 nm, more preferably less than 150 nm, more preferably less than 100 nm, and most preferably less than 75 nm.
The width of the particle size distribution in suspension is given by the “polydispersity” of the particles, which is defined as the relative variance in the correlation decay rate distribution, as is known by one skilled in the art. […]
The particle size of the nanoparticles in the aqueous suspension was determined using dynamic light scattering (DLS) as follows. […] Dynamic light-scattering was measured using a Brookhaven Instruments (Holtsville, N.Y.) BI-200SM particle size analyzer with a BI-9000AT correlator. The sums of exponentials from the autocorrelation functions were analyzed using CONTIN software to extract size distributions from the samples. […]

Measurement of free drug = test: Measurement of free drug
Protocol: In one embodiment, the compositions of the present invention are capable of improving the concentration of dissolved drug in a use environment relative to a control composition consisting essentially of the drug alone without any ethylcellulose or bile salt. In order to determine concentration enhancement in vitro, the amount of “free” drug, or solvated drug is measured. By “free” drug is meant drug which is in the form of dissolved drug or present in micelles, but which is not in the nanoparticles or any solid particles larger than 500 nm, such as precipitate. A composition of the invention provides concentration enhancement if, when administered to an aqueous use environment, it provides a free drug concentration that is at least 1.25-fold the free drug concentration provided by the control composition. Preferably, the free drug concentration provided by the compositions of the invention are at least about 1.5-fold, more preferably at least about 2-fold, and most preferably at least about 3-fold that provided by the control composition.
The amount of free drug provided by a suspension of the nanoparticles of Example 11 was measured using the following procedure. […]
The amount of free drug provided by a suspension of the nanoparticles of Example 12 was measured as follows. […]

Solubility of the drug = test: Solubility of the drug
[3] = MFD solution, fassgf or other biorelevant, read-out: solubility in MFD solution
[4] = water, read-out: solubility in water

Structure (SMILES) | solubility (Solubility of the drug; [3]) | solubility (Solubility of the drug; [4]) | further results
Cc1onc(-c2ccccc2)c1-c1ccc(S(N)(=O)=O)cc1 [Crystalline Valdecoxib, valdecoxib] | – | – | Dissolution Rate [1]: 5.0 %/min; Average Particle Size [2]: >1000 nm; Free Drug (Measurement of free drug; Table 5, aqueous suspension prior to spray-drying, 100,000-dalton cutoff filtrate): 11 µg/mL; Free Drug (Measurement of free drug; Table 6, spray-dried composition in dextrose solution, 100,000-dalton cutoff filtrate): 11 µg/mL
Cc1ccc(-c2cc(C(F)(F)F)nn2-c2ccc(S(N)(=O)=O)cc2)cc1 [Drug 1, 4-[5-(4-methylphenyl)-3-(trifluoromethyl)-1H-pyrazol-1-yl]benzenesulfonamide] | ~40 µg/mL (≈ 105 µM) | – | –
Cc1onc(-c2ccccc2)c1-c1ccc(S(N)(=O)=O)cc1 [Drug 2, 4-(5-methyl-3-phenyl-4-isoxazolyl)benzenesulfonamide] | – | ~10 µg/mL (≈ 31.8 µM) | –
CCOC(=O)N1c2ccc(C(F)(F)F)cc2[C@@H](N(Cc2cc(C(F)(F)F)cc(C(F)(F)F)c2)C(=O)OC)C[C@H]1CC [Drug 3, [2R,4S]4-[(3,5-bis-trifluoromethyl-benzyl)-methoxycarbonyl-amino]-2-ethyl-6-trifluoromethyl-3,4-dihydro-2H-quinoline-1-carboxylic acid ethyl ester] | – | < 0.1 µg/mL | –
CC[C@@H]1C[C@H](N(Cc2cc(C(F)(F)F)cc(C(F)(F)F)c2)C(C)=O)c2cc(C(F)(F)F)ccc2N1C(=O)OC(C)C [Drug 4, [2R,4S]4-[acetyl-(3,5-bis-trifluoromethyl-benzyl)-amino]-2-ethyl-6-trifluoromethyl-3,4-dihydro-2H-quinoline-1-carboxylic acid isopropyl ester] | ~11 µg/mL (≈ 18.4 µM) | – | –
